Experimental data taken from ChEMBL document CHEMBL1151409, “Flavonoids of Desmanthus illinoensis” (1983).
Active and inactive are the calls of the source. The calls are words filed in the database; no cut-off is given here.

Tests used:
Heliothis virescens = assay: Growth inhibition of tobacco budworm larvae assessed as percent of diet; type: functional
[1] = tested on: Stenotrophomonas maltophilia; assay: Antibacterial activity against Pseudomonas maltophilia at 100 ug by test disc paper method; type: functional; details: read-out: IZ
[2] = tested on: Lysinibacillus sphaericus; assay: Antibacterial activity against Bacillus sphaericus by test disc paper method; type: functional, organism-based
Bacillus subtilis = assay: Antibacterial activity against Bacillus subtilis at 100 ug by test disc paper method; type: functional; details: read-out: IZ
Bacillus thuringiensis = assay: Antibacterial activity against Bacillus thuringiensis at 100 ug by test disc paper method; type: functional; details: read-out: IZ
Solanum lycopersicum = assay: Growth regulatory activity on tomato root; type: functional, organism-based

Compound	ED50 (Heliothis virescens)	zone of inhibition at 100 µg/disc [1]	Activity [2]	zone of inhibition at 100 µg/disc (Bacillus subtilis)	zone of inhibition at 100 µg/disc (Bacillus thuringiensis)	Activity (Solanum lycopersicum)
C[C@H]1O[C@@H](Oc2c(-c3cc(O)c(O)c(O)c3)oc3cc(O)cc(O)c3c2=O)[C@@H](O)[C@@H](O)[C@@H]1O [MYRICITRIN]	0.11%	–	–	–	–	–
O=c1c(O)c(-c2ccc(O)c(O)c2)oc2cc(O)cc(O)c12 [QUERCETIN]	0.05%	10 mm	–	–	–	–
O=C(O)c1cc(O)c(O)c(O)c1 [GALLIC ACID]	18.5%	–	Active	10 mm	–	–
C[C@H]1O[C@@H](Oc2c(-c3cc(O)c(O)c(O)c3)oc3cc(O)cc(O)c3c2=O)[C@@H](OC(=O)c2cc(O)c(O)c(O)c2)[C@@H](O)[C@@H]1O	0.09%	10 mm	Active	10 mm	10 mm	–
C[C@H]1O[C@@H](Oc2c(-c3cc(O)c(O)c(O)c3)oc3cc(O)cc(O)c3c2=O)[C@@H](O)[C@@H](O)[C@@H]1OC(=O)c1cc(O)c(O)c(O)c1	0.04%	–	–	–	–	inactive
